Laboratory results published in PMC13576449, “Small-Molecule Activators of PRMT1: Discovery, SAR Analyses, and Proapoptotic Effects in Pancreatic Cancer Cells” (Journal of Medicinal Chemistry, 2026).

Each compound was assayed against T1, FLAG-tagged PRMT6 (Homo sapiens, UniProt Q96LA8) (assay: Fluorescence-based in vitro PRMT assay (F-PRMT assay), PRMT6). Conditions: Table S2; 100 µM compound, vs solvent control = 100%, n=3; racemates used.
T1 construct: The complete ORFs of human PRMT3 and PRMT6 were inserted; made in house; host or cells: Sf9 insect cells (baculovirus)
T1 sequence (Q96LA8 whole entry): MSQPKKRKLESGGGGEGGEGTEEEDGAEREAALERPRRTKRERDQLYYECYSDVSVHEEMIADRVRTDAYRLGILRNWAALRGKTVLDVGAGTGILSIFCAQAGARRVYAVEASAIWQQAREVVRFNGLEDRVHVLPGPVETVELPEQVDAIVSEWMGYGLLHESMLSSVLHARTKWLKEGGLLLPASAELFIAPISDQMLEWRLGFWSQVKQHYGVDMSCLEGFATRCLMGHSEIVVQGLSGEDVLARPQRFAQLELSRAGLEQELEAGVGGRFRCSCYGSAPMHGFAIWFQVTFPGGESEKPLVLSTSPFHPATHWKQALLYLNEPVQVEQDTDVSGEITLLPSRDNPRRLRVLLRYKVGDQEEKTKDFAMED
Format: biochemical
Source text: To evaluate the effects of the selected candidate molecules on the catalytic activity of type I enzymes, we employed a quantitative fluorescence-based in vitro PRMT activity (F-PRMT) assay using recombinant FLAG-tagged PRMT proteins expressed and affinity-purified from baculovirus-infected Sf9 cells (SI Figure S1, SI Figure S2A).
Human cell lines (PaTu8988T, PANC-1) were obtained from ATCC (American Type Culture Collection) and cultured in DMEM supplemented with 10% fetal calf serum (FCS, Gibco/BRL), 1% penicillin/streptomycin at 37 °C and 5% CO2. […] For PRMT1 inhibition, cells were treated with type I PRMT inhibitor MS023 hydrochloride (Biomol). For induction of genotoxic stress, cells were treated with gemcitabine (LC Laboratories). […] The following plasmids were used: pFASTBAC-FLAG-rat PRMT1, pFASTBAC-FLAG-mouse PRMT4, and pGEX-GAR. The complete ORFs of human PRMT3 and PRMT6 were inserted into the pFASTBAC HT-3xFLAG B vector via BamHI/HindIII and BamHI/XhoI sites, respectively.
For PRMT protein expression in insect cells, recombinant baculovirus (bacmid) was generated using the Bac-to-Bac baculovirus system (Invitrogen). Sf9 cells were transfected with bacmid DNA using X-tremeGENE HP DNA transfection reagent (Sigma-Aldrich) according to the manufacturer's instructions. After 3–5 days, supernatants were collected, filtered, and used to infect Sf9 cells to amplify the virus. After 2 rounds of virus amplification and estimation of the final P3 virus titer, the P3 virus (2–5 μL/10^6 cells) was applied for large-scale infection of 200 × 10^6 Sf9 cells in suspension culture at a density of 1 × 10^6 cells/mL. Cells were harvested 5–6 days post-infection by centrifugation at 500 g for 5 min at room temperature. Protein purification from baculovirus-infected Sf9 cells was performed as previously described. , Cells were lysed in BC buffer (20 mM HEPES pH 7.9, 250 mM NaCl, 10% (v/v) glycerin, 0.4 mM EDTA, 1 mM DTT) containing a protease inhibitor cocktail (Roche) by 3 freeze-thaw cycles. After centrifugation at 11,000 rpm (Sorval SS34 rotor) and 4 °C for 1 h, the supernatant (whole cell protein extract) was incubated with anti-FLAG M2 Affinity Gel (Cytiva) at 4 °C and under agitation for 4 h. Subsequently, beads were washed in BC buffer containing various NaCl concentrations (once in BC with 1 M NaCl, twice in BC with 500 mM NaCl, twice in BC with 250 mM NaCl and twice in BC with 100 mM NaCl). FLAG-tagged proteins were either maintained bead-bound as a 50% (v/v) slurry in BC buffer with 100 mM NaCl and stored at −80 °C or were eluted in the appropriate elution buffer (depending on the subsequent assay) containing 0.25 mg/mL 3xFLAG peptides (Sigma-Aldrich) at 4 °C for 30–45 min. To remove the FLAG-peptides from the eluate, dialysis was performed in elution buffer containing 10% (v/v) glycerol at 4 °C for 4–6 h using Slide-A-Lyzer Dialysis Devices (Thermo Fisher Scientific) according to the manufacturer’s recommendations.
In the first step, the fluorogenic substrate Nα-Benzoyl-L-arginine-7-amido-4-methylcoumarin (Bz-Arg-AMC, Sigma-Aldrich) undergoes methylation by PRMTs upon the addition of the cofactor SAM. In the second reaction step, trypsin cleaves the nonmethylated substrate, leading to the generation of the 7-amino-4-methylcoumarin product, which can be quantified by subsequent fluorescence measurement (excitation: 355 nm, emission: 460 nm). The first reaction was conducted with bead-bound PRMTs at a total volume of 100 μL. Each condition was performed as a technical triplicate to determine the mean and the standard deviation. […] For the negative controls, SAM was substituted with assay buffer. The incubation was continued at 37 °C and under agitation (1,000 rpm) for a duration of 2 h.
In the case of `COc1cccc(NC(=O)CNCCC(N)=O)c1` [Compound K002JS005], the “Experimental result (PRMT6)” value is reported as “n.e. (did not significantly affect the catalytic activity of the intended PRMT (less than ±6% change or not significant p-value), are marked with n.e. (no effect))”. With `CCNc1nc(C)cc(NCCNC(=O)Cc2ccc(F)cc2)n1` [Compound K002FT003] the “Experimental result (PRMT6)” value was “n.e. (did not significantly affect the catalytic activity of the intended PRMT (less than ±6% change or not significant p-value), are marked with n.e. (no effect))”. In the case of `CC(C)N(CCCOCc1ccccc1)CC(=N)NO` [Compound K600JK007], the “Experimental result (PRMT6)” value is reported as “n.e. (did not significantly affect the catalytic activity of the intended PRMT (less than ±6% change or not significant p-value), are marked with n.e. (no effect))”. With `CN1CC[C@@](O)(CNCCc2cccc(OC(F)(F)F)c2)C1` (racemic) [Compound K600JK012] the “Experimental result (PRMT6)” value was “n.e. (did not significantly affect the catalytic activity of the intended PRMT (less than ±6% change or not significant p-value), are marked with n.e. (no effect))”. With `COc1cc(CNC(C)C)ccc1OCc1nc(C)no1` [Compound K002JS018] the “Experimental result (PRMT6)” value was “n.e. (did not significantly affect the catalytic activity of the intended PRMT (less than ±6% change or not significant p-value), are marked with n.e. (no effect))”. In the case of `COCC1(CNCc2nnc([C@H]3C[C@H](N)C3)n2C2CC2)CC1` [Compound K002FT002], the “Experimental result (PRMT6)” value is reported as “n.e. (did not significantly affect the catalytic activity of the intended PRMT (less than ±6% change or not significant p-value), are marked with n.e. (no effect))”. With `CN[C@H](CO)c1cc(OC)ccc1Br` (racemic) [Compound K002FT016] the “Experimental result (PRMT6)” value was “n.e. (did not significantly affect the catalytic activity of the intended PRMT (less than ±6% change or not significant p-value), are marked with n.e. (no effect))”. For `CCN(CCCC(=O)Nc1cccc(C)c1)C1CNC1` [Compound K600JK005], the “Experimental result (PRMT6)” value was “n.e. (did not significantly affect the catalytic activity of the intended PRMT (less than ±6% change or not significant p-value), are marked with n.e. (no effect))”. In the case of `Cc1cccc(-n2ncc3c(NCCN(C)C)ncnc32)c1` [Compound K002FT004], the “Experimental result (PRMT6)” value is reported as “n.e. (did not significantly affect the catalytic activity of the intended PRMT (less than ±6% change or not significant p-value), are marked with n.e. (no effect))”. With `COc1cc(CNCCO)ccc1Oc1nnnn1-c1ccccc1` [Compound K002FT006] the “Experimental result (PRMT6)” value was “n.e. (did not significantly affect the catalytic activity of the intended PRMT (less than ±6% change or not significant p-value), are marked with n.e. (no effect))”. `Nc1nccc(N2CC[C@@]3(CCCN(C4CCOCC4)C3=O)C2)n1` (racemic) [Compound K002JS009] was tested, and the “Experimental result (PRMT6)” value was “n.e. (did not significantly affect the catalytic activity of the intended PRMT (less than ±6% change or not significant p-value), are marked with n.e. (no effect))”. With `O=[N+]([O-])c1ccc(Sc2n[nH]c(Cc3ccccc3)n2)nc1` [Compound K002JS015] the “Experimental result (PRMT6)” value was “n.e. (did not significantly affect the catalytic activity of the intended PRMT (less than ±6% change or not significant p-value), are marked with n.e. (no effect))”. With `CNCC(=O)NCCc1ccc(OC)c(OC)c1` [Compound K002JS002] the “Experimental result (PRMT6)” value was “n.e. (did not significantly affect the catalytic activity of the intended PRMT (less than ±6% change or not significant p-value), are marked with n.e. (no effect))”. In the case of `COc1ccc(Cl)cc1NC(=O)[C@@H]1CCCN1` (racemic) [Compound K002JS001], the “Experimental result (PRMT6)” value is reported as “n.e. (did not significantly affect the catalytic activity of the intended PRMT (less than ±6% change or not significant p-value), are marked with n.e. (no effect))”. In the case of `Cc1nc(N)cc(NC[C@H]2CC(=O)N(c3ccccc3)C2)n1` (racemic) [Compound K002FT010], the “Experimental result (PRMT6)” value is reported as “n.e. (did not significantly affect the catalytic activity of the intended PRMT (less than ±6% change or not significant p-value), are marked with n.e. (no effect))”. `COc1cc(CNCCN(C)C)ccc1OCc1nc(C)no1` [Compound K002FT011] was tested, and the “Experimental result (PRMT6)” value was “n.e. (did not significantly affect the catalytic activity of the intended PRMT (less than ±6% change or not significant p-value), are marked with n.e. (no effect))”. With `CNCCNC(=O)NC[C@@]12CNC[C@@]1(C(F)(F)F)C2` (racemic) [Compound K600JK013] the “Experimental result (PRMT6)” value was “n.e. (did not significantly affect the catalytic activity of the intended PRMT (less than ±6% change or not significant p-value), are marked with n.e. (no effect))”. In the case of `COc1cc(CNCCNCCO)cc(Cl)c1OC(C)C` [Compound K002FT001], the “Experimental result (PRMT6)” value is reported as “n.e. (did not significantly affect the catalytic activity of the intended PRMT (less than ±6% change or not significant p-value), are marked with n.e. (no effect))”. In the case of `c1ccc2oc(C3CCN(Cc4c[nH]cn4)CC3)nc2c1` [Compound K002FT015], the “Experimental result (PRMT6)” value is reported as “n.e. (did not significantly affect the catalytic activity of the intended PRMT (less than ±6% change or not significant p-value), are marked with n.e. (no effect))”. In the case of `CCc1c(-c2cccc3ccccc23)nc2ccc(NC(=O)CN)cn12` [Compound K002FT014], the “Experimental result (PRMT6)” value is reported as “n.e. (did not significantly affect the catalytic activity of the intended PRMT (less than ±6% change or not significant p-value), are marked with n.e. (no effect))”. In the case of `CN(C)CC(=O)Nc1cnccc1N1CCOCC1` [Compound K002FT018], the “Experimental result (PRMT6)” value is reported as “n.e. (did not significantly affect the catalytic activity of the intended PRMT (less than ±6% change or not significant p-value), are marked with n.e. (no effect))”. For `NCCCCNCc1cc(Br)cs1` [Compound K002JS012], the “Experimental result (PRMT6)” value was “n.e. (did not significantly affect the catalytic activity of the intended PRMT (less than ±6% change or not significant p-value), are marked with n.e. (no effect))”. For `Cc1cc(NC(=O)CN(C)C)cc(N2CCN(C(C)C)CC2)c1` [Compound K002FT012], the “Experimental result (PRMT6)” value was “n.e. (did not significantly affect the catalytic activity of the intended PRMT (less than ±6% change or not significant p-value), are marked with n.e. (no effect))”. With `OC1(c2c[nH]nn2)CCN(CCOc2ccc(Cl)cc2)C1` (centres unmarked) [Compound K002JS017] the “Experimental result (PRMT6)” value was “n.e. (did not significantly affect the catalytic activity of the intended PRMT (less than ±6% change or not significant p-value), are marked with n.e. (no effect))”. `Clc1ccc(N2CCN(c3ncnc4[nH]ccc34)CC2)nc1` [Compound K002FT013] was tested, and the “Experimental result (PRMT6)” value was “n.e. (did not significantly affect the catalytic activity of the intended PRMT (less than ±6% change or not significant p-value), are marked with n.e. (no effect))”. In the case of `CN(C)CCNc1ncnc2cc(-c3ccc(F)cc3)sc12` [Compound K002FT005], the “Experimental result (PRMT6)” value is reported as “n.e. (did not significantly affect the catalytic activity of the intended PRMT (less than ±6% change or not significant p-value), are marked with n.e. (no effect))”. In the case of `COc1cc(CN2CCC(CN)C2)cc(Cl)c1OC` (centres unmarked) [Compound K002JS010], the “Experimental result (PRMT6)” value is reported as “n.e. (did not significantly affect the catalytic activity of the intended PRMT (less than ±6% change or not significant p-value), are marked with n.e. (no effect))”. In the case of `CNCC1CCN(Cc2cc(F)ccc2C)CC1` [Compound K002FT009], the “Experimental result (PRMT6)” value is reported as “n.e. (did not significantly affect the catalytic activity of the intended PRMT (less than ±6% change or not significant p-value), are marked with n.e. (no effect))”.

Same assay, conditions: Table S2; 100 µM compound; mean % difference vs solvent control (100%), n=3
`Cc1cc(NCCc2nc(C)cc(=O)[nH]2)nc(N2CCCCC2)n1` [Compound K002FT008] was tested, and the “Efficacy ±∆% (PRMT6)” value was -10%.
